Laboratory results taken from patent publication EP0326331B1, “Substituted quinolines and cinnolines” (Dow AgroSciences LLC, priority 1988, dated 1989).

Legend:
Type in all cases: in vivo
[1] = tested on: southern armyworm (Spodopetra eridania Cramer); assay: Mite/insect screen, SAW; conditions: percent mortality, foliar spray on squash; for mortality at 400 ppm / mortality at 200 ppm: Spodoptera eridania, foliar, read-out: SAW RESULTS %
Outline: (§1)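 First, each compound was dissolved in an emulsifier-containing acetone/alcohol mixture and diluted with water. Next, leaves were sprayed until runoff and left to dry for an hour. For southern armyworm, two excised uninfested leaves went into a Petri dish with larvae; percent mortality followed standard exposure periods.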

[2] = tested on: Pyricularia oryzae (rice blast); assay: whole plant or invertebrate; conditions: disease control rating at 400 ppm / 100 ppm; for pest or weed control at 400 ppm: Pyricularia oryzae, foliar, read-out: RICE BLAST, Test 1, foliar spray on rice
[3] = tested on: corn rootworm; assay: Mite/insect screen, CRW; conditions: percent mortality; for mortality at 24 ppm / mortality at 12 ppm: read-out: CRW RESULTS %
Outline: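 Stock in acetone:alcohol 1:1 + TOXIMUL R 23 g/L + TOXIMUL S 13 g/L; diluted with water to indicated concentrations; mortality (%) after standard exposure.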

[4] = tested on: Erysiphe graminis tritici (powdery mildew); assay: Test 1 greenhouse foliar spray screen, powdery mildew on wheat; conditions: Test 1, foliar spray on wheat, disease control rating at 400 ppm / 100 ppm; for pest or weed control at 400 ppm: Blumeria graminis, foliar, read-out: POWD MDEW
[5] = tested on: melon aphids (Aphis gossypii Glover); assay: Mite/insect screen, MA; conditions: percent mortality, foliar spray on squash; for mortality at 400 ppm / mortality at 200 ppm: Aphis gossypii, foliar, read-out: MA RESULTS %
Outline: as §1

[6] = tested on: Pseudoperonospora cubensis (downy mildew); assay: Test 1 greenhouse foliar spray screen, downy mildew on squash; conditions: Test 1, foliar spray on squash, disease control rating at 400 ppm / 100 ppm; for pest or weed control at 400 ppm: Pseudoperonospora cubensis, foliar, read-out: DOWN MDEW
[7] = tested on: Puccinia recondita tritici (leaf rust); assay: Test 1 greenhouse foliar spray screen, leaf rust on wheat; conditions: Test 1, foliar spray on wheat, disease control rating at 400 ppm / 100 ppm; for pest or weed control at 400 ppm: Puccinia recondita, foliar
[8] = tested on: Twospotted spider mites (Tetranychus urticae Koch); assay: Mite/insect screen, SM; conditions: percent mortality, foliar spray on squash; for mortality at 400 ppm / mortality at 200 ppm: Tetranychus urticae, foliar, read-out: SM RESULTS %
Outline: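 Read-out: percent mortality after standard exposure periods. Test solutions were water dilutions of compound dissolved in acetone/alcohol (50:50) with emulsifier blends; leaves were sprayed to runoff on both surfaces and air-dried for one hour before exposure.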

[9] = tested on: Botrytis cinerea (gray mold); assay: Test 1 greenhouse foliar spray screen, gray mold on grape berries; conditions: Test 1, spray on grape berries, disease control rating at 400 ppm / 100 ppm; for pest or weed control at 400 ppm: Botrytis cinerea, foliar

Row | SMILES | mortality at 400 ppm ([1]; rate 400 ppm) | pest or weed control at 400 ppm [2] | mortality at 24 ppm ([3]; CRW rate 24.00 ppm) | pest or weed control at 400 ppm [4] | mortality at 400 ppm ([5]; rate 400 ppm) | pest or weed control at 400 ppm [6] | pest or weed control at 400 ppm [7] | mortality at 400 ppm ([8]; rate 400 ppm) | pest or weed control at 400 ppm [9] | mortality at 200 ppm ([1]; rate 200 ppm) | mortality at 12 ppm ([3]; CRW rate 12.00 ppm) | mortality at 200 ppm ([5]; rate 200 ppm) | mortality at 200 ppm ([8]; rate 200 ppm) | also measured
1 | Cc1ccc(CCOc2cc(OCCc3ccc(C)cc3)c3cccc(F)c3n2)cc1 [Example 250, 8-fluoro-2,4-bis[2-(4-methylphenyl)ethoxy]quinoline] | 0% | 0 to 19% | 0% | 0 to 19% | 0% | 20 to 89% | 20 to 89% | 0% | 0 to 19% |  |  |  |  | 
2 | FC(F)(F)c1ccc2c(CCCc3ccccc3)ccnc2c1 [Example 254, 4-(3-phenylpropyl)-7-(trifluoromethyl)quinoline] | 0% | 90 to 100% | 0% | 90 to 100% | 0% | 0 to 19% | 0 to 19% | 0% | 0 to 19% |  |  |  |  | 
3 | Clc1cccc2c(CCCc3ccccc3)ccnc12 [Example 255, 8-chloro-4-(3-phenylpropyl)quinoline] | 0% | 90 to 100% | 0% | 20 to 89% | 0% | 20 to 89% | 90 to 100% | 0% | 0 to 19% |  |  |  |  | 
4 | Fc1cccc2c(CCCc3ccc(-c4ccccc4)cc3)ccnc12 [Example 257, 4-[3-(1,1'-biphenyl)-4-ylpropyl]-8-fluoroquinoline] | 0% | 20 to 89% | 0% | 90 to 100% | 0% | 90 to 100% | 90 to 100% | 0% | 0 to 19% |  |  |  |  | 
5 | CC(C)(C)c1ccc(CCOc2ccnc3ccccc23)cc1 [Example 262, 4-[2-[4-(t-butyl)phenyl]ethoxy]quinoline] | 0% | 90 to 100% | 0% | 0 to 19% | 100% | 90 to 100% | 90 to 100% | 100% | 0 to 19% | 0% | 0% | 100% | 100% | 
6 | Fc1cccc2c(OCCc3ccc(-c4ccccc4)cc3)ccnc12 [Example 263, 8-fluoro-4-[2-(1,1'-biphenyl)-4-yl-ethoxy]quinoline] |  |  |  |  |  |  |  |  |  |  |  |  |  | SAW RESULTS % ([1]; rate 200 ppm): 0%; SAW RESULTS % ([1]; rate 400 ppm): 0%; RICE BLAST ([2]; Test 1, foliar spray on rice): + (20-89% control at 400 ppm); CRW RESULTS % ([3]; CRW rate 12.00 ppm): 0%; CRW RESULTS % ([3]; CRW rate 24.00 ppm): 0%; POWD MDEW [4]: + (20-89% control at 400 ppm); MA RESULTS % ([5]; rate 200 ppm): 0%; MA RESULTS % ([5]; rate 400 ppm): 0%; DOWN MDEW [6]: - (0-19% control at 400 ppm); LEAF RUST [7]: + (20-89% control at 400 ppm); SM RESULTS % ([8]; rate 200 ppm): 0%; SM RESULTS % ([8]; rate 400 ppm): 0%; GRAY MOLD [9]: - (0-19% control at 400 ppm)
7 | OCCc1ccc(CCOc2ccnc3c(F)cccc23)cc1 [Example 265, 8-fluoro-4-[2-[4-(2-hydroxyethyl)phenyl]ethoxy]quinoline] | 0% | 90 to 100% | 0% | 0 to 19% | 0% | 0 to 19% | 90 to 100% | 0% | 0 to 19% | 0% | 0% | 0% | 0% | 
8 | COC(C)CCOc1ccnc2c(F)cccc12 (stereo not shown) [Example 266, 8-fluoro-4-[3-methoxybutoxy]quinoline] | 0% | 0 to 19% | 0% | 0 to 19% | 0% | 0 to 19% | 0 to 19% | 0% | 0 to 19% | 0% | 0% | 0% | 0% | 
